Where “and” joins values, the source holds several entries; their conditions need not be identical. Identical values can stand only once. Counter-ions that a name gives are not always drawn. Like-named read-outs stand apart in the source and are kept apart here.
Columns and labels:
stomach = assay: Gastrointestinal side effect measurement (gastric ulcers and erosions, relative to indomethacin); assay type: in vivo, Female rats from Wistar type; conditions: for Gastric lesion ((Index of ulcers in drug tests / Index of ulcers in indomethacin tests) x 100): relative to indomethacin 20 mg/kg = 100, same doses and schedule as ulcer column
Protocol: Female rats from Wistar type (150-180 g body weight) were subject to fasting 24 hours before experimentation. […] 2.5 hours later, all the groups received a second administration of the same doses. Stomachs were examined at 5 hours after first treatment in the following way: animals were sacrificed and stomach was separated which was opened along its lower curvature, gently rinsing with formol (2%) and examined. Severity of induced gastric lesions with medicament was calculated as a ratio of number of lesions (stomach ulcer or erosion) caused by provided treatment and the number of lesions caused by indomethacin (100%). This was determined to reflect the side effects induced by medicament. The sum of the area of all the ulcers in the body of each animal was calculated and served as an ulcerative index. Gastric lesion percentage was calculated in the following way: % of gastric lesion = (IUM/IUI) × 100 [formula] wherein IUM is the Medicament Ulcerative Index on test (mm^2) and IUI is the Ulcerative Index for assayed Indomethacin (mm^2).
ABC was calculated for each drug combination and for each of the components. On the basis of addition of individual pharmacological effects (Seegers et al., 1981) an ABC equivalent to the sum was expected. If the sum of the corresponding individual ABC was higher than the theoretical sum, the result was determined as enhancement; when similar to the theoretical sum it was determined to show additive antinociceptive effects. ABC was obtained through the trapezoidal rule (Rowland and Trozer, 1989). All the values for each treatment were average ± S.E.M., for six animals. ABC values for drug combinations were compared with the values which were expected by using the Student test. […] A P<0.05 was determined as statistically significant.

rat arthritic pain model = assay: PIFIR model: antinociceptive activity after intraarticular uric acid (rat arthritic pain model); assay type: in vivo, Wistar [CRl (WI) BR] female rats; set-up: antinociceptive efficiency (ABC): dose or concentration left out as unconfirmed
Protocol: A rat arthritic pain model was determined for said purpose. Data were interpreted by using a Surface Synergic Interaction Analysis (ISS) and an Isobolographic Analysis to determine the interaction nature. ISS is calculated from the total antinociceptive effect produced by a combination after a substraction of an antinociceptive effect produced separately by the drug.
For this trial, Wistar [CRl (WI) BR] female rats weighing 180-200 g. were weighed. Feed was maintained 12 hours before the water ad libitum access experiments. All the experimental procedures followed the recommendations of the Committee for Research and Ethical Issues of the International Association for the Study of Pain (Covino et al., 1980) and Guidelines on Ethical Standards for Investigations of Experimental Pain in Animals (Zimmermann, 1983) and they were carried out according to a protocol approved by the local Animal Ethics Committee. Animal number in experiment was kept at a […] and animals were maintained in a weathered room and light control with a 12-hour light/darkness cycle.
Uric acid was suspended in mineral oil; Ketorolac trometamine, tramadol hydrochloride and indomethacin were dissolved in carboxymethyl cellulose and orally administered.
Antinociceptive activity was determined by using a PIFIR model which has been described in detail (López-Muñoz et al., 1993). Animals were anesthetized with chamber ether (Pyrex-glass dryer saturated with ether vapor). Nociception was induced through an intraarticular injection (ia) of 0.5 mL uric acid suspended in mineral oil in the right-hind leg knee joint. Suspension was prepared by mixing 3.0 g of uric acid with 10 mL of mineral oil in a glass mortar with pestle (Pyrex). Intraarticular injection was carried out through the patellar ligament using a 1 mL glass syringe (Beckton Dickinson LTA, Brazil) with a 5 mm 24-needle. Immediately after, an electrode was implanted in the plantar surface of each hind claw between the plantar pads. Rats were allowed to recover from anesthesia and then a stainless steel cylinder was attached which was rotated at 4 rpm, forcing to the rats to walk for 2 minute periods every 30 minutes during 6.5 hours. It was not necessary a training period since rats learned it from the first minute. Contact time between each implanted electrode in rat limb and cylinder was registered. After the uric acid injection, rats progressively developed damaged limb dysfunction. […] This time was considered as zero time for antinoceptive effect measures; these effects are measured every 30 minutes during the following 4 hours. This allowed determining the course of the nociceptive effects in the same animal. Antinociception was considered as a recovery of contact time. Data are expressed as a performance percentage index (IF%; that is, contact time of injected leg divided by contact time of left leg, control, multiplied per 100). For the purpose of this trial, it was unavoidable to induce nociception in experimentation animals. However, care was taken in preventing an unnecessary suffering. All the experiments were performed between 7:00 A.M. and 2:00 P.M.
At the end of the study the rats were sacrificed.
Study data, tables and figures are expressed as IF%. IF% vs. time curves were prepared for each treatment and the corresponding time course was obtained. Antinociception was estimated as a recovery of IF%. Accumulated antinociceptive effect during all the observation period (4 hours) was determined as the area under the curve (ABC) for time course to obtain the dose-response curve and for analyzing the total antinociceptive effect obtained for the analgesic agent whether alone and in combination.
ABC was calculated for each drug combination and for each of the components. On the basis of addition of individual pharmacological effects (Seegers et al., 1981) an ABC equivalent to the sum was expected. […]

[1] = in vivo
Protocol: Blood samples were taken up to 24 hours after medicament delivery.
In order to determine whether bioavailability is existent or not between both medicaments, a logarithmic transformation of data was carried out and they were analyzed by means of the statistical package WinNonlinTM.
Confidence ranges proposed by FDA for semilogarithmic data in determining bioequivalency of two products are from 80 to 125%.

[2] = ketorolac, cited from earlier work
[3] = cited from earlier work
[4] = p.o., two administrations 2.5 hours apart, stomach examined at 5 hours, indomethacin 20 mg/kg, ketorolac 1 mg/kg, tramadol 17.8 mg/kg, combination as in title, six rats

For COc1ccc2c(c1)c(CC(=O)O)c(C)n2C(=O)c1ccc(Cl)cc1 [Indomethacin], the No. of erosions (stomach; [4]) was 30.0 ± 3.9, the “Ulcers (sum of the area of all ulcers)” value (stomach; [4]) was 51.6 ± 3.4 mm^2 and the “Gastric lesion ((Index of ulcers in drug tests / Index of ulcers in indomethacin tests) x 100)” value (stomach) was 100%.
O=C(c1ccccc1)c1ccc2n1CCC2C(=O)O (centres unmarked) [Ketorolac, Ketorolac trometamine] showed an Emax (rat arthritic pain model; IF% time course, ketorolac 0.32 mg/kg p.o. alone) of 33.7 ± 8.7%, an ED50 (rat arthritic pain model; Rattus norvegicus, po, dose causing 50% of maximum possible effect, linear regression of dose-response curve, ± S.E.M., read-out: DE50 (the source's name)) of 0.86 ± 0.1 mg/kg and an ABC (rat arthritic pain model; ketorolac 0.32 mg/kg p.o. alone, 4 hours) of 65.0 ± 9.6 au. The ABC (rat arthritic pain model; ketorolac 0.56 mg/kg p.o. alone, 4 hours) was 98.7 ± 15.5 au, the ABC (rat arthritic pain model; ketorolac 1.78 mg/kg p.o. alone, 4 hours) was 279.0 ± 15.5 au and the “antinociceptive effect (ABC)” value (rat arthritic pain model; ketorolac 3.16 mg/kg p.o., maximum used dose) was 295.8 ± 14.9 au. The “effect on walking capacity of rats treated with vehicle” value (rat arthritic pain model; ketorolac 0.18 -5.62 mg/kg, tramadol 3.16-56.23 mg/kg, no uric acid, data not shown) was “did not affect the walking capacity”, the “antinociceptive efficiency (ABC)” value (rat arthritic pain model; ketorolac p.o., area under IF% vs time curve, 4 hours, mean ± S.E.M., six animals) was 295.8 ± 14.9 au and the “Ulcers (sum of the area of all ulcers)” value (stomach; [4]) was 13.7 ± 2.7 mm^2 and 13.7 ± 2.7^c mm^2. For the same compound, the “Gastric lesion ((Index of ulcers in drug tests / Index of ulcers in indomethacin tests) x 100)” value (stomach) was 26.6%, the “Ratio (%Ref), LnAUCINF” value ([1]; human) was 95.53 %Ref and the “Ratio (%Ref), Ln (Cmax)” value [1] was 72.78 %Ref. The “start of analgesic effect” value ([2]; intramuscular administration) was 30 min, the “start of analgesic effect” value ([2]; oral administration) was 10 min and the “dose removed by urine without any change” value ([3]; ketorolac, remainder excreted in feces) was “about 91%”.
With COc1cccc(C2(O)CCCCC2CN(C)C)c1 (centres unmarked) [Tramadol, Tramadol Hydrochloride] the “Antinociceptive effects (ABC)” value (rat arthritic pain model; rat, in vivo) was 236.7 ± 11.0 au, the Emax (rat arthritic pain model; rat, in vivo) was 17.1 ± 9.1% and the “antinociceptive activity (ABC)” value (rat arthritic pain model; rat, in vivo) was 207.7 ± 24.7 au. For the same compound, the “effect on walking capacity of rats treated with vehicle” value (rat arthritic pain model; rat, in vivo) was “did not affect the walking capacity”, the “side effects (sedation, elation, dizziness and effects on walking capacity)” value (rat arthritic pain model; rat, in vivo) was 50 % of animals and the DE50 (rat arthritic pain model; rat, in vivo, po) was 44.29 ± 0.06 mg/kg. The No. of erosions (stomach; rat, in vivo) was 0, the “Ulcers (sum of the area of all ulcers)” value (stomach; rat, in vivo) was 0 mm^2 and the “ulcers or erosions (in words)” value (stomach; rat, in vivo) was “did not cause ulcers or erosions”. For the same compound, the bioavailability ([3]; in vivo, po) was 79% and the “time to maximum plasma concentrations” value ([3]; in vivo, po) was 1.5 to 2 h.

Source: patent EP2138174A1, “PHARMACEUTICAL COMPOSITION IN THE FORM OF A SUBLINGUAL TABLET CONSISTING OF A NON-STEROIDAL ANTI-INFLAMMATORY AGENT AND AN OPIATE ANALGESIC FOR PAIN MANAGEMENT” (priority 2007, dated 2008)
